Data: article PMC12705485, “Aluminum-[^18F]fluoride radiolabeling of triarylphosphines for cell labeling via the perfluoroaryl azide Staudinger ligation” (EJNMMI Radiopharmacy and Chemistry, 2025)
Where two headings read alike, the source gives them in different places. Blank lines part the entries; values can stand above or below the compound they belong to.

Assays:
[1] = cited from earlier work
[2] = Kinetic studies on the PFAA-Staudinger ligation with 1 by 1H NMR spectroscopy; details: reaction with 1, DMSO-d6, 2.5 mM, 25 °C
Description: The kinetics of the Staudinger ligation between 1 and 2a–2c (Scheme 1) were monitored by ^1H NMR spectroscopy, following spectral changes over time.
The kinetic experiments were carried out following a published protocol (Sundhoro et al. [2017]). […] Kinetic models were evaluated by non-linear fitting corresponding to first- and second-order rate laws in Prism 10 (GraphPad, San Diego, CA, USA) as expected for the Staudinger ligation. Fitting was carried out using kinetic models based on reagent decomposition (A) or product formation (P) as shown in the equations below, depending on signal clarity and the magnitude of ^1H NMR spectral changes over time:where [A] = concentration of reactant A at time t, [A]₀ = initial concentration of reactant A (at t = 0), [P] = concentration of product P at time t, [P]₀ = maximum possible product concentration, k = rate constant and t = time elapsed.

Jurkat cells [3] = assay: Cell viability during flow cytometry workflow (automatic cell counter / 7-AAD); format: cell-based, Human
Description: (§1) After incubation, the cells for each condition were combined and washed twice with 5 mL of 1 × Dulbecco's phosphate-buffered saline (DPBS). The cell number and viability were determined using EVE™ automatic cell counter (NanoEnTek, Seoul, Korea). 1 × 10^6 cells were resuspended in 500 µL of a freshly prepared 1 × DPBS (pH 7.4) or 1 µM of phosphine-PEG3-biotin (Thermo Fisher Scientific, Waltham, MA, USA) in 1 × DPBS (n = 3), then transferred to 1.5-mL microtubes, and incubated at ambient temperature for 60 min on a rotating platform. Then, cells are washed twice with 1 × DPBS, resuspended in 100 µL of a freshly prepared solution of 1:200 streptavidin-fluorescein isothiocyanate (FITC) (0.1 μg, Thermo Fisher Scientific, Waltham, MA, USA) in 1 × DPBS, and incubated for 15 min in the dark on ice with mixing once manually in between. After the incubation, 400 µL of FACS (fluorescence-activated cell sorting) buffer (2% FBS in DPBS) was added followed by two washings with 500 µL of FACS buffer. During the washing step, the samples were centrifuged at 4 °C, […] for 5 min, the supernatant was removed, and the cells were resuspended in fresh buffer, followed by centrifugation. Lastly, cells were resuspended in 500 µL of FACS buffer and transferred to FACS tubes equipped with a 35 µm cell strainer cap. Dead and apoptotic cells were stained by adding 5 µL of 7-aminoactinomycin D (7-AAD) staining solution and incubating for 10 min at ambient temperature in the dark, followed by flow cytometry analysis using LSR Fortessa (BD Biosciences, Franklin Lake, NJ, USA). Unstained samples, samples stained only with streptavidin-FITC, and only with 7-AAD were used as controls. Data were analyzed using FlowJo software (FlowJo LLC, Ashland, OR, United States).

Jurkat cells [4] = assay: Flow cytometry of metabolic glycoengineering (phosphine-PEG3-biotin, streptavidin-FITC); format: cell-based, Human; details: 50 µM, 72 h, then 1 µM phosphine-PEG3-biotin
Description: Jurkat cells (5 × 10^5 cells in 1.5-mL complete medium per well) were seeded in a non-treated flat-bottom polystyrene 6-well plate (Avantor, Radnor, PA, USA) and incubated in triplicates (n = 3) with 50 μM of 1, 50 μM of Ac4ManNAz (Lumiprobe, Westminster, MD, USA) or 0.5% (v/v) DMSO in complete medium for 72 h in a cell incubator set at 37 °C with 5% CO2 and 95% relative humidity. After incubation, the cells for each condition were combined and washed twice with 5 mL of 1 × Dulbecco's phosphate-buffered saline (DPBS). The cell number and viability were determined using EVE™ automatic cell counter (NanoEnTek, Seoul, Korea). 1 × 10^6 cells were resuspended in 500 µL of a freshly prepared 1 × DPBS (pH 7.4) or 1 µM of phosphine-PEG3-biotin (Thermo Fisher Scientific, Waltham, MA, USA) in 1 × DPBS (n = 3), then transferred to 1.5-mL microtubes, and incubated at ambient temperature for 60 min on a rotating platform. […] After the incubation, 400 µL of FACS (fluorescence-activated cell sorting) buffer (2% FBS in DPBS) was added followed by two washings with 500 µL of FACS buffer. […] Data were analyzed using FlowJo software (FlowJo LLC, Ashland, OR, United States).

[5] = CyQUANT LDH Cytotoxicity Assay; format: cell-based; details: human, Jurkat T lymphoblasts (Clone E6-1), read-out: cell viability
Description: The in vitro cytotoxicity of 1 was assessed using the CyQUANT™ LDH Cytotoxicity Assay (Invitrogen, Waltham, MA, USA), which quantifies membrane damage via extracellular lactate dehydrogenase (LDH) release. Assay reagents (Lysis Buffer, Reaction Mixture, and Stop Solution) were prepared according to the manufacturer’s protocol. Human Jurkat T lymphoblasts (Clone E6-1, ATCC TIB-152™, Manassas, VA, USA) were suspended in complete medium and mixed (1:1) with 1 in complete medium to obtain final concentrations of 10, 20, 50, 125, and 250 μM containing 0.5% v/v DMSO vehicle. Positive control for cytotoxicity (maximum LDH; cells lysed with 10 × Lysis Buffer at 1:10 v/v, prepared before each time point), negative control for cytotoxicity (spontaneous LDH; 0.5% v/v DMSO in complete medium), and complete-medium and serum-free medium blanks (background) were included. Sample-containing and control cell suspensions were plates at a density of 14,000 cells per well in 280 μL on an opaque-walled, clear-bottom 96-well plate. Plates were incubated at 37 °C, 5% CO2 in a humidified incubator for 24, 48, and 72 h. All conditions were run in quadruplicate (n = 4). […] Absorbance was measured at 490 and 680 nm on a Synergy H1 multimode microplate reader (BioTek, Winooski, VT, USA). LDH signal was calculated as Abs490 – Abs680 (background-corrected).
% Cytotoxicity was determined as:

[6] = Cell viability during flow cytometry workflow (automatic cell counter / 7-AAD); format: cell-based, Human; details: human, Jurkat cells, 50 µM, 72 h
Description: as §1

[7] = Stability of 2c under simulated radiolabeling conditions (HPLC); format: physicochemical; details: 60 nmol AlCl3, 1:1 0.17 M NaOAc (pH 4.5):EtOH, 30 min
Description: The analysis was carried out using a pentafluorophenyl (PFP) column (Kinetex 2.6 µm PFP 100 Å, LC Column 150 × 4.6 mm from Phenomenex, Torrance, CA, USA) and HPLC methods A and B (see SI). The Al^19F-complexes were isolated and analyzed using NMR and/or HRMS. The stability of 2c was also tested in the presence of 60 nmol AlCl3 in 1:1 (v/v) 0.17 M NaOAC (pH 4.5):EtOH, simulating the radiolabeling conditions.

SMILES: [N-]=[N+]=NCc1ccccc1 [benzyl azide]
second-order rate constant, non-traceless Staudinger ligation ([1]; ACN:H2O (19:1) ref Lin et al. [2005]): 2.5 × 10^–3 M^−1 s^−1

SMILES: O=C(O)CN(CC(=O)O)CC(CCNC(=O)Cc1ccc(CN(CC(=O)O)[C@@H]2CCCC[C@H]2N(CC(=O)O)CC(=O)O)cc1)OC(=O)c1ccccc1P(c1ccccc1)c1ccccc1 (stereo partly drawn) [2a]
second-order rate constant of PFAA-Staudinger ligation [2]: 4.246 × 10^–4 M⁻1 s⁻1

SMILES: O=C(O)CN(CC(=O)O)[C@@H]1CCCC[C@H]1N(CC(=O)O)Cc1ccc(CC(=O)NCCNC(=O)c2ccccc2P(c2ccccc2)c2ccccc2)cc1 [2b]
first-order rate constant of PFAA-Staudinger ligation [2]: 5.434 × 10^–3 s⁻1

SMILES: CC(=O)OC[C@H]1OC(OC(C)=O)[C@@H](NC(=O)CN=[N+]=[N-])[C@@H](OC(C)=O)[C@@H]1OC(C)=O (stereo partly drawn) [Ac4ManNAz, Tetra-acetylated N-azidoacetylmannosamine, reference compound]
cell viability after 72 h of incubation (Jurkat cells [3]; 50 µM, 72 h): 96% | cell viability at the time of analysis (Jurkat cells [3]; 50 µM, 72 h, after ligation and staining): 79–82% | fluorescent labeling with streptavidin-FITC (Jurkat cells [4]): observed

SMILES: SCP(c1ccccc1)c1ccccc1 [(diphenylphosphino)methanethiol]
second-order rate constant, traceless Staudinger ligation ([1]; DMF:D2O (6:1) ref Soellner et al. [2006]): 7.7 × 10^–3 M^−1 s^−1

SMILES: CC(=O)OCC1OC(OC(C)=O)C(NC(=O)c2c(F)c(F)c(N=[N+]=[N-])c(F)c2F)C(OC(C)=O)C1OC(C)=O (stereo not drawn) [compound 1, tetra-acetylated PFAA-derivatized mannosamine]
viability ([5]; concentrations up to 50 μM, 24, 48 and 72 h): > 80% | viability at 125 µM ([5]; ≥ 125 μM, after 24 and 72 h of incubation): < 80% | viability at 72 h, 50 µM ([6]; after ligation and staining, read-out: cell viability at the time of analysis): 77 to 80% | viability at 72 h, 50 µM ([6]; read-out: cell viability after 72 h of incubation): 91% | cell viability (Jurkat cells [3]; 100 µM, 72 h of incubation): reduced cell viability | fluorescent labeling with streptavidin-FITC (Jurkat cells [4]): minimal/no signal

stability under radiolabeling conditions without radioactivity (HPLC) [7]: negligible change
SMILES: O=C(O)CN(CC(=O)O)C1CCCCC1N(CC(=O)O)Cc1ccc(CC(=O)NC2CCC(CNC(=O)c3ccccc3P(c3ccccc3)c3ccccc3)CC2)cc1 (stereo not drawn) [2c]
second-order rate constant of PFAA-Staudinger ligation [2]: 4.071 × 10^–4 M⁻1 s⁻1
